{"source": "patent US12509435B2", "about": "“Compounds for selective binding to estrogen receptors alpha/beta relative to GPER/GPR30 and methods of treating disease states and conditions mediated through these receptors” (UNM RAINFOREST INNOVATIONS, priority 2019, dated 2025)", "assay_type_in_all_cases": "cell-based", "key": {"[1]": {"molecular_target": "T1, ERα (Homo sapiens, UniProt P03372)", "T1 construct": "endogenous in cells; host or cells: MCF-7", "T1 sequence (P03372 1-595)": "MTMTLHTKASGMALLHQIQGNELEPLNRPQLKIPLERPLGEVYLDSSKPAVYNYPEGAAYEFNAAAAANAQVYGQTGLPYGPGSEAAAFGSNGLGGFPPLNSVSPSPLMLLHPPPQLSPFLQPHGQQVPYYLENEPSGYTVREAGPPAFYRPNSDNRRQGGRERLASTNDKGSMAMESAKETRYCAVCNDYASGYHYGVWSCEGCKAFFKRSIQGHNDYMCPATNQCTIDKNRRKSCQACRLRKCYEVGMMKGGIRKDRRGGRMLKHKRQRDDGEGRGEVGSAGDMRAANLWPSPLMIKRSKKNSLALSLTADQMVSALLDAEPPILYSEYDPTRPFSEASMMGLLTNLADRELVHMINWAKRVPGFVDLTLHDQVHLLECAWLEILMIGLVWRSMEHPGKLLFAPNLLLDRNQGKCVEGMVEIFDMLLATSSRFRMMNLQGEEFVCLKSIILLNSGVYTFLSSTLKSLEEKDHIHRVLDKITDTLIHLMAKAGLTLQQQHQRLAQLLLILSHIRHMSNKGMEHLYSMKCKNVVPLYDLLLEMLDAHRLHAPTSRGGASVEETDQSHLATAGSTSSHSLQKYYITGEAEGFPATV", "test": "Degradation of ERα in MCF-7 cells, Western blot", "conditions": "indicated concentrations", "experimental": "MCF-7 were treated with the indicated compounds and ERα protein levels were assessed by Western blot (top panel). Actin served as a loading control (bottom panel). Quantification of the western blot is shown on the right."}, "[2]": {"molecular_target": "T2, ERα-Y537S (Homo sapiens, UniProt P03372, Y537S)", "T2 construct": "host or cells: HEK293", "T2 sequence (P03372 1-595 Y537S)": "T1 sequence (P03372 1-595) with Y537S", "test": "Degradation of HA-ERα-Y537S mutant in transfected HEK293 cells, Western blot", "conditions": "HEK293 cells transfected with HA-ERα-Y537S, Western blot relative to actin", "source_text": "HEK293 cells transfected with the HA-ERα-Y537S mutant were stimulated with the indicated compounds and HA-ERα-Y537S protein levels assessed by Western blot (left) and quantitated relative to actin (right)."}, "[3]": {"test_system": "Tamoxifen-resistant MCF-7 cells (TamR) and long-term estrogen-deprived MCF-7 cells (LTED)", "test": "Cell viability in cell line models of endocrine resistance after 5 days", "conditions": "TamR and LTED MCF-7 cells, normalized to DMSO-treated cells", "source_text": "Cells were a gift from Dr. Donald McDonnell (Duke University)."}}, "note": "Positions count from the first letter of the chain named."}
{"compound": "CCCCN(C)C(=O)CCCCCCCCCCCC1=CCC2(CO)COC(c3ccc(O)cc3)C1C2", "note": "(stereo not drawn) [AB-82P, N-butyl-12-(1-(hydroxymethyl)-4-(4-hydroxyphenyl)-3-oxabicyclo[3.3.1]non-6-en-6-yl)-N-methyldodecanamide]", "values": [{"measurement": "degradation of ERα protein levels", "setting": "[1]", "value": "Dose-dependent degradation of ERα"}, {"measurement": "degradation of HA-ERα-Y537S protein levels", "setting": "[2]", "value": "induced degradation of ERα-Y537S"}, {"measurement": "effect on cell viability in models of endocrine resistance", "setting": "[3]", "value": "inhibitory effects"}]}
